Values quoted from earlier work in patent US20250057962A1, “PROCESSABLE COMPOSITIONS AND USE FOR THE SAME” (Ripple Therapeutics Corporation, priority 2021, published 2025).

Settings: given once a day

For `CC(C)OC(=O)CCC/C=C\C[C@@H]1[C@@H](CC[C@@H](O)CCc2ccccc2)[C@H](O)C[C@@H]1O` [latanoprost], the “mean IOP lowering” value is given as “about 35%”.
